{
  "source": "patent US20240424115A1",
  "about": "“LONG-ACTING INTERLEUKIN-15 RECEPTOR AGONISTS AND RELATED IMMUNOTHERAPEUTIC COMPOSITIONS AND METHODS” (Nektar Therapeutics, priority 2017, published 2024)",
  "key": {"[1]": {"tested_on": "NK cells, CD8 T cells, CD4 T cells", "experiment": "In vivo PD study in mice: lymphocyte cell numbers, proliferation and activation", "set-up": "species or system Balb/c mice", "text": "NK cells and their proliferation were defined using CD45+CD3-CD49b+ and CD45+CD3-CD49b+Ki67+ marker combinations. Following dosing, blood samples were acquired on the Fortessa flow cytometer running FACS DIVA software. Flowjo software was used for analysis and NK cell absolute values and Ki67% positivity within NK cells were plotted using Prism.\nIn mouse, four different maturation states of NK cells are defined by CD27 and CD11b expression. Once NK marker (CD49b+), natural activating NK receptor (NKp46+) and IL-15/IL-2RB (CD122+) triple positive cells were identified, immature (CD11b−CD27−), early (CD11b−CD27+), high effector (CD11b+CD27+) and terminal effector (CD11b+CD27−) NK cells were quantified by flow cytometry.\nNK cells in various maturation states were quantified in mice receiving a single dose, or after the third dose of a q7dx3 schedule, of Conjugate 1 at 0.01, 0.03, 0.1, 0.3, 1.0, and 1.5 mg/kg as described above. Using flow cytometry, the NK population of interest was identified by CD49b, NKp46 and CD122 positivity. CD11b and CD27 were then used to further differentiate the NK population in immature (CD11b-CD27−), early NK (CD11b−CD27+), high effector (CD11b+CD27+) and terminal effector (CD11b+CD27−) subpopulations. Peripheral blood was run on the Fortessa flow cytometer and absolute values for each population were determined using counting beads during sample acquisition using BD FACS DIVA software. Flow cytometric analysis was conducted using Flowjo software and data plotted in Prism.\nThe surface expression of NKG2D was conducted using flow cytometric analysis of anti-NKG2D signal, expressed as mean fluorescence intensity (MFI) in NK cells. Similarly, the level of intracellular granzyme B was conducted using flow cytometry-based detection of anti-Granzyme B signal, also expressed as MFI in NK cells. Following detection of NKG2D and granzyme B signal using the Fortessa flow cytometer and FACS Diva software, analysis was conducted using Flowjo software. MFI values were plotted using Prism. […] Dose-dependent increases in both NK activation markers was observed following a single dose of Conjugate 1.\nIn mouse, CD8 T cells were defined as CD45+CD3+CD4−CD8+. Blood and spleen from mice were subject to immunophenotyping using the Fortessa flow cytometer and with analysis using Flowjo software. Absolute CD8 cell counts were plotted in Prism as shown in FIG. 14 (blood) and FIG. 24 (spleen). FIG. 14 and FIG. 24 illustrate the ability of Conjugate 1 to induce proliferation and a sustained increase in numbers of CD8 T-cells following a single i.v. administration in mice at each of the dosage amounts described above. The impact is most notable for the medium (0.1mg/kg, 0.3 mg/kg) and high (1.0 mg/kg, 1.5 mg/kg) dosage amounts.\nIn mouse, CD8 effector memory (Tem) and CD8 central memory (TCM) T cells were identified as CD45+CD3+CD4−CD8+CD44+CD62− and CD45+CD3+CD4−CD8+CD44+CD62L+. Proliferation of these memory populations was conducted using Ki-67 positivity. Following a single dose of Conjugate 1 or IL-15, blood and spleen were subject to immunophenotyping using the Fortessa flow cytometer, DIVA acquisition software and Flowjo analysis software. Graphs were plotted in Prism. […] Both effector and central memory populations proliferate in response to administration of Conjugate 1, an exemplary long acting IL-15 agonist.\nNK-cell Granzyme B expression as a function of time was measured following treatment with Conjugate 1 at doses of 0.01 mg/kg, 0.03 mg/kg, 0.1 mg/kg, 0.3 mg/kg, 1 mg/kg, and 1.5 mg/kg. Whole blood was collected from 24 to 240 hours post-dose for immunophenotyping. Once red blood cells were lysed, white blood cells were labeled with viability dye and markers specific for CD45, CD3 and CD49b to identify live NK cells. Cells were then simultaneously fixed and permeabilized for intracellular Granzyme B staining. Stained blood was run on a Fortessa flow cytometer, acquired by DIVA software and analyzed using Flowjo software. […]"}, "[2]": {"tested_on": "YAC-1 cells", "assay_type": "cell-based", "method": "NK cell-mediated cytotoxicity against target tumor cells was evaluated in vitro using a flow cytometry-based assay. NK cells were isolated from spleens of Balb/c mice using negative-selection magnetic cell isolation (Mouse NK cell enrichment kit, Stemcell Technologies) and used as effector cells. For in vitro studies, isolated NK cells were stimulated with Conjugate 1 at concentrations of 3000, 1000, 300, 30, 3, or 0 (unstimulated) ng/ml overnight in a humidified incubator at 37° C., 5% CO2 prior to use in the cytotoxicity assay. For in vivo studies, mice were dosed with 0.3 mg/kg Conjugate 1, and splenic NK cells were isolated 24, 48, and 72 h post-dose and used directly in the cytotoxicity assay.\nYAC-1 T-cells labeled with PKH26 were used as target cells. To monitor NK cell cytotoxicity, NK and YAC-1 cells were co-cultured at various effector: target ratios (50:1, 25:1, and 12.5:1) for 4 hours at 37° C., 5% CO2, then stained with 7-AAD for 10 min to label dead cells. Cells were immediately analyzed using flow cytometry. Lysed target cells were identified as PKH26+7-AAD+.\nBalb/c mice (n=2/group) were treated with Conjugate 1 (0.006, 0.03 or 0.3 mg/kg), IL-15 (1 mg/kg) or vehicle control. After treatment, spleens were isolated 24, 72, and 96 hours for NK cell isolation. […]"}, "[3]": {"settings": "mice, blood, single dose 0.3 mg/kg"}},
  "data": [
    {"substance": "IL-15: recombinant human IL-15 from E. coli, SEQ ID NO: 1, non-glycosylated, 12.9 kDa; unconjugated comparator", "values": [
      {"measurement": "Ki67 and Granzyme B in CD49b cells, spleen", "setting": "[1]; mice, single dose", "value": "does not"}
    ]},
    {"substance": "mono-mPEG-SBA40K-IL-15 [Conjugate 1]", "values": [
      {"measurement": "Granzyme B percent positivity in blood NK cells", "setting": "[1]; Balb/c mice, 0.03 and 0.3 mg/kg (Example 18)", "value": "induced significant increases in NK Granzyme B expression"},
      {"measurement": "CD4 T cell numbers and % Ki-67", "setting": "[1]; Balb/c mice, single i.v. 0.03 or 0.3 mg/kg, compared to CD8 and NK cells", "value": "relatively small increase in numbers and % Ki-67 expression"},
      {"measurement": "percent of NK cells positive for Granzyme B expression", "setting": "[1]; mice, 0.01-1.5 mg/kg, 24 to 240 hours (Example 15)", "value": "increases NK-cell Granzyme B expression"},
      {"measurement": "duration of increase in NK cell number", "setting": "[1]; mice, all dose levels", "value": "at least 96 hours"},
      {"measurement": "duration of increase in % Ki67", "setting": "[1]; mice, all dose levels, compared to vehicle", "value": "at least 120 hours"},
      {"measurement": "increase in CD8 Tcm cell numbers", "setting": "[1]; [3]", "value": 37.9, "unit": "X"},
      {"measurement": "increase in CD8 Tem cell numbers", "setting": "[1]; [3]", "value": 14.5, "unit": "X"},
      {"measurement": "increase in CD8 cell numbers", "setting": "[1]; [3]", "value": 6.4, "unit": "X"},
      {"measurement": "duration of increase of NK cells in all maturation sub-populations", "setting": "[1]; mice, i.v., Example 11", "value": "at least 120 hours"},
      {"measurement": "duration of increase in NK cell number", "setting": "[1]; mice, medium and high dose levels", "value": "at least 144 hours"},
      {"measurement": "duration of increase in % Ki67", "setting": "[1]; mice, medium dose ranges (0.1 mg/kg and 0.3 mg/kg)", "value": "at least 144 hours"},
      {"measurement": "increase in CD8 Tcm cell numbers", "setting": "[1]; mice, repeated dosing Q7dx3", "value": 183, "unit": "X"},
      {"measurement": "increase in CD8 Tem cell numbers", "setting": "[1]; mice, repeated dosing Q7dx3", "value": 73.8, "unit": "X"},
      {"measurement": "increase in CD8 cell numbers", "setting": "[1]; mice, repeated dosing Q7dx3", "value": 35.3, "unit": "X"},
      {"measurement": "Ki67 and Granzyme B in CD49b cells, spleen", "setting": "[1]; mice, single dose", "value": "dose-dependent increase in both Ki67 and Granzyme B"},
      {"measurement": "Ki-67 in effector and central memory CD8 T cells, blood", "setting": "[1]; mice, single dose", "value": "dose-dependent increase in both effector and central memory CD8 T cells"},
      {"measurement": "dose levels inducing a significant increase in total CD8 T cells in the blood", "setting": "[1]; mice, single dose", "value": "≥ 0.03", "unit": "mg/kg"},
      {"measurement": "NK cell numbers", "setting": "[1]; mice, single dose 0.01 to 1.5 mg/kg", "value": "increase significantly above vehicle control at all dose levels"},
      {"measurement": "CD8 and CD8 memory T cell numbers at end of time course", "setting": "[1]; mice, single dose 0.3-1.5 mg/kg", "value": "did not return to baseline at 240 hours post injection"},
      {"measurement": "NKG2D and Granzyme B expression (MFI) by NK cells", "setting": "[1]; mice, single i.v. 0.03, 0.3, 1 mg/kg vs vehicle", "value": "sustained increase in both NKG2D and Granzyme B"},
      {"measurement": "time increased CD8 cell numbers were maintained compared to vehicle", "setting": "[1]; mice, single iv injection", "value": "at least 240 hours"},
      {"measurement": "NK cytotoxicity (percent specific lysis of YAC-1 cells) after treatment of mice", "setting": "[2]", "value": "elevation of NK cytotoxicity superior in magnitude and duration"}
    ]}
  ]
}
